Test results published in PubChem BioAssay AID248 (DTP/NCI, 2004).
Where “and” joins values, the source holds several entries; their conditions need not be identical. Identical values can stand only once. Inconclusive results and toxic doses are left out. No stated cut-off is given here; in the data, active means T/C of 150% or more; inactive means T/C below 125%.

System: L1210 leukemia ip in BDF1 mice, survival T/C
Assay: NCI In Vivo Anticancer Drug Screen. Data for tumor model L1210 Leukemia (intraperitoneal) in B6D2F1 (BDF1) mice
Conditions: endpoint: mean survival time, higher = longer survival
In short: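 In this screen, tumor-bearing mice given compound are compared to those given vehicle, and their survival values are reported as a treated-to-control quotient.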

[1] = dose: 50.0 mg/kg/injection, schedule: Q01DX001 (ip), vehicle: saline with Tween-80
[2] = dose: 50.0 mg/kg/injection, schedule: Q01DX009 (ip), vehicle: saline with Tween-80
[3] = dose: 50.0 mg/kg/injection, schedule: Q04DX003 (ip), vehicle: saline with Tween-80
[4] = dose: 100.0 mg/kg/injection, schedule: Q01DX001 (ip), vehicle: saline with Tween-80
[5] = dose: 100.0 mg/kg/injection, schedule: Q01DX009 (ip), vehicle: saline with Tween-80
[6] = dose: 100.0 mg/kg/injection, schedule: Q04DX003 (ip), vehicle: saline with Tween-80
[7] = dose: 200.0 mg/kg/injection, schedule: Q01DX001 (ip), vehicle: saline with Tween-80
[8] = dose: 200.0 mg/kg/injection, schedule: Q01DX009 (ip), vehicle: saline with Tween-80
[9] = dose: 200.0 mg/kg/injection, schedule: Q04DX003 (ip), vehicle: saline with Tween-80
[10] = dose: 25.0 mg/kg/injection, schedule: Q01DX009 (ip), vehicle: Klucel (hydroxypropylcellulose) (HPC)
[11] = dose: 50.0 mg/kg/injection, schedule: Q01DX009 (ip), vehicle: Klucel (hydroxypropylcellulose) (HPC)
[12] = dose: 100.0 mg/kg/injection, schedule: Q01DX009 (ip), vehicle: Klucel (hydroxypropylcellulose) (HPC)
[13] = dose: 100.0 mg/kg/injection, schedule: Q04DX003 (ip), vehicle: Klucel (hydroxypropylcellulose) (HPC)
[14] = dose: 200.0 mg/kg/injection, schedule: Q01DX009 (ip), vehicle: Klucel (hydroxypropylcellulose) (HPC)
[15] = dose: 200.0 mg/kg/injection, schedule: Q04DX003 (ip), vehicle: Klucel (hydroxypropylcellulose) (HPC)
[16] = dose: 400.0 mg/kg/injection, schedule: Q04DX003 (ip), vehicle: Klucel (hydroxypropylcellulose) (HPC)
[17] = dose: 100.0 mg/kg/injection, schedule: Q01DX009 (ip), vehicle: saline
[18] = dose: 200.0 mg/kg/injection, schedule: Q01DX009 (ip), vehicle: saline
[19] = dose: 400.0 mg/kg/injection, schedule: Q01DX009 (ip), vehicle: saline
[20] = dose: 400.0 mg/kg/injection, schedule: Q04DX003 (ip), vehicle: saline with Tween-80
[21] = dose: 400.0 mg/kg/injection, schedule: Q01DX009 (ip), vehicle: Klucel (hydroxypropylcellulose) (HPC)
[22] = dose: 100.0 mg/kg/injection, schedule: Q01DX001 (ip), vehicle: carboxymethylcellulose (CMC)
[23] = dose: 200.0 mg/kg/injection, schedule: Q01DX001 (ip), vehicle: carboxymethylcellulose (CMC)
[24] = dose: 400.0 mg/kg/injection, schedule: Q01DX001 (ip), vehicle: carboxymethylcellulose (CMC)
[25] = dose: 100.0 mg/kg/injection, schedule: Q01DX001 (ip), vehicle: saline
[26] = dose: 200.0 mg/kg/injection, schedule: Q01DX001 (ip), vehicle: saline
[27] = dose: 400.0 mg/kg/injection, schedule: Q01DX001 (ip), vehicle: saline

Measured: T/C

O=C(CCCl)Oc1c(Cl)c(Cl)c(Cl)c(Cl)c1Cl
inactive: [1] 98 % of control | [2] 111 % of control | [3] 95 % of control | [4] 96 % of control | [5] 103 % of control | [6] 97 % of control | [7] 100 % of control | [8] 100 % of control | [9] 93 % of control

c1ccc(CC2NCCc3c2[nH]c2ccccc32)cc1 (stereo not drawn)
inactive: [10] 104 % of control | dose: 25.0 mg/kg/injection, schedule: Q04DX003 (ip), vehicle: Klucel (hydroxypropylcellulose) (HPC) 92 % of control | [11] 103 % of control | [12] 93 % of control | [13] 89 % of control | [14] 108 % of control | [15] 97 % of control | [16] 97 % of control

NC12CC3CC(C1)CC(F)(C3)C2
inactive: dose: 50.0 mg/kg/injection, schedule: Q01DX009 (ip), vehicle: saline 101 % of control | [17] 99 % of control | [18] 101 % of control | [19] 93 % of control

CCOC(=O)C1=C(C)NC(C)=C(C(=O)OCC)C1c1ccnc2ccccc12
inactive: dose: 100.0 mg/kg/injection, schedule: Q01DX001 (ip), vehicle: steriod suspending solution 93 % of control | dose: 200.0 mg/kg/injection, schedule: Q01DX001 (ip), vehicle: steriod suspending solution 94 % of control | dose: 400.0 mg/kg/injection, schedule: Q01DX001 (ip), vehicle: steriod suspending solution 89 % of control

COc1ccc(CC(=O)NC(N)=O)cc1
inactive: [6] 101 % of control | [9] 97 % of control | [20] 90 % of control

O=c1cc(-c2ccccc2)ss1
inactive: [12] 100 % of control | [5] 101 % of control | [6] 102 % of control | [14] 102 % of control | [8] 97 % of control | [9] 102 % of control | [21] 105 % of control | dose: 400.0 mg/kg/injection, schedule: Q01DX009 (ip), vehicle: saline with Tween-80 96 % of control | [20] 103 % of control

C[C@]1(O)CC[C@H]2[C@@H]3CCC4=CC(=O)CC[C@]4(C)[C@@]3(F)C(=O)C[C@@]21C
inactive: [12] 101 % of control | dose: 100.0 mg/kg/injection, schedule: Q04DX003 (ip), vehicle: other 92 % of control | [14] 101 % of control | dose: 200.0 mg/kg/injection, schedule: Q04DX003 (ip), vehicle: other 108 % of control | [21] 95 % of control | dose: 400.0 mg/kg/injection, schedule: Q04DX003 (ip), vehicle: other 94 % of control

Cn1c(N)c(N=Nc2ccc(S(=O)(=O)Nc3ncccn3)cc2)c(=O)n(C)c1=O
inactive: [22] 98 % of control | [23] 98 % of control | [24] 95 % of control

COCC1=CC(=O)CCC1CC1OC1(C)C (stereo not drawn)
inactive: [2] 96 % of control | [5] 96 % of control | [8] 96 % of control

CN(C)C(=O)Nc1cccc(OC(=O)NC2CCCCCCC2)c1
inactive: [6] 91 % of control | [9] 100 % of control | [20] 96 % of control

O=[N+]([O-])c1ccc(OCCOCCBr)c(Cl)c1
inactive: [22] 98 % of control and 101 % of control | dose: 100.0 mg/kg/injection, schedule: Q01DX009 (ip), vehicle: carboxymethylcellulose (CMC) 101 % of control and 110 % of control | dose: 100.0 mg/kg/injection, schedule: Q04DX003 (ip), vehicle: carboxymethylcellulose (CMC) 100 % of control and 103 % of control | [23] 98 % of control and 90 % of control | dose: 200.0 mg/kg/injection, schedule: Q01DX009 (ip), vehicle: carboxymethylcellulose (CMC) 95 % of control and 97 % of control | dose: 200.0 mg/kg/injection, schedule: Q04DX003 (ip), vehicle: carboxymethylcellulose (CMC) 100 % of control and 106 % of control | [24] 97 % of control and 101 % of control | dose: 400.0 mg/kg/injection, schedule: Q01DX009 (ip), vehicle: carboxymethylcellulose (CMC) 95 % of control and 101 % of control | dose: 400.0 mg/kg/injection, schedule: Q04DX003 (ip), vehicle: carboxymethylcellulose (CMC) 94 % of control

Cc1ccccc1NC(=O)CI
inactive: dose: 12.5 mg/kg/injection, schedule: Q01DX009 (ip), vehicle: Klucel (hydroxypropylcellulose) (HPC) 97 % of control | [10] 103 % of control | [11] 101 % of control

Nc1nc2nc(N=Nc3ccc(S(N)(=O)=O)cc3)[nH]c2c(=O)[nH]1
inactive: [13] 96 % of control | [15] 93 % of control | [16] 99 % of control

C/C(=C(/SS/C(C(=O)O)=C(/C)c1cccc(O)c1)C(=O)O)c1cccc(O)c1
inactive: [25] 97 % of control | [26] 97 % of control | [27] 97 % of control

CCCCCCCCCCCCCCCC(=O)N(CCCN)C(C)CCCN(CC)CC (stereo not drawn)
inactive: dose: 25.0 mg/kg/injection, schedule: Q01DX009 (ip), vehicle: saline with Tween-80 93 % of control | [2] 86 % of control | [5] 102 % of control | [6] 97 % of control | [9] 103 % of control | [20] 100 % of control

O=C(O)C(CS)NS(=O)(=O)Cc1ccccc1 (stereo not drawn)
inactive: dose: 100.0 mg/kg/injection, schedule: Q01DX001 (ip), vehicle: other 104 % of control | dose: 200.0 mg/kg/injection, schedule: Q01DX001 (ip), vehicle: other 94 % of control | dose: 400.0 mg/kg/injection, schedule: Q01DX001 (ip), vehicle: other 100 % of control

CC(=O)Oc1c2c(c(OC(C)=O)c3c1C(=O)c1ccccc1C3=O)CCCC2
inactive: [25] 98 % of control | [26] 92 % of control | [27] 98 % of control

CC(C)COC(CN)C(Cl)(Cl)Cl (stereo not drawn)
inactive: [1] 104 % of control | [2] 94 % of control and 110 % of control | [3] 100 % of control | [4] 103 % of control | [5] 97 % of control and 92 % of control | dose: 100.0 mg/kg/injection, schedule: Q04DX002 (ip), vehicle: saline with Tween-80 103 % of control and 104 % of control | [6] 95 % of control | [7] 97 % of control | [8] 93 % of control and 99 % of control | dose: 200.0 mg/kg/injection, schedule: Q04DX002 (ip), vehicle: saline with Tween-80 95 % of control and 101 % of control | [9] 92 % of control

CC/C(CC(C)CC)=N\O (stereo not drawn)
inactive: [17] 101 % of control | dose: 100.0 mg/kg/injection, schedule: Q04DX003 (ip), vehicle: saline 93 % of control | [18] 101 % of control | dose: 200.0 mg/kg/injection, schedule: Q04DX003 (ip), vehicle: saline 98 % of control | [19] 101 % of control | dose: 400.0 mg/kg/injection, schedule: Q04DX003 (ip), vehicle: saline 91 % of control

COc1cc(/C=N/NC(=O)CNC(=O)NCc2ccccc2)ccc1O
inactive: [2] 92 % of control | [5] 95 % of control

NC(=O)Nc1cccc2ccccc12
inactive: [12] 97 % of control | [13] 92 % of control | [14] 97 % of control | [15] 94 % of control | [21] 103 % of control | [16] 100 % of control

CC1(C)COC(c2ccc3c(c2)OCO3)OC1
inactive: [22] 96 % of control | [23] 97 % of control | [24] 94 % of control

CN(C)C(=O)Nc1cccc(OP(=O)(Oc2ccccc2)Oc2ccccc2)c1
inactive: [13] 91 % of control | [15] 94 % of control | [16] 98 % of control

CC(=O)/C(=C/c1ccccc1)c1ccccc1
inactive: dose: 75.0 mg/kg/injection, schedule: Q01DX009 (ip), vehicle: Klucel (hydroxypropylcellulose) (HPC) 95 % of control | dose: 75.0 mg/kg/injection, schedule: Q04DX003 (ip), vehicle: Klucel (hydroxypropylcellulose) (HPC) 104 % of control | dose: 150.0 mg/kg/injection, schedule: Q01DX009 (ip), vehicle: Klucel (hydroxypropylcellulose) (HPC) 106 % of control | dose: 150.0 mg/kg/injection, schedule: Q04DX003 (ip), vehicle: Klucel (hydroxypropylcellulose) (HPC) 100 % of control | dose: 300.0 mg/kg/injection, schedule: Q01DX009 (ip), vehicle: Klucel (hydroxypropylcellulose) (HPC) 102 % of control | dose: 300.0 mg/kg/injection, schedule: Q04DX003 (ip), vehicle: Klucel (hydroxypropylcellulose) (HPC) 104 % of control
